Experiments:
[1] = system: human 20S proteasome (Tau-441 substrate); test: Tau-441 degradation by h20S (SDS-PAGE); assay type: biochemical; conditions: 10 μM modulator, 37 °C, 1.5 h
Procedure: The effectiveness of the compounds has also been examined by using proteins as substrates. By means of SDS-PAGE electrophoresis, we checked the extent to which model proteins were digested by the 20S proteasome alone and after its stimulation by 10 μM modulators. […] After incubation with the enzyme in the presence of each modulator, less than 40% of synuclein remained. […] The experiment was performed as it was described.[36] Briefly, α-synuclein (rPeptide, […], USA) and Tau-441 (Novus Biologicals, Centennial, CO, USA) were dissolved in 20 mM HEPES buffer (pH 7.4) and mixed with a human 20S proteasome. Samples were incubated at 37 °C for 1.5 h, after which the reaction was terminated by adding 4× Laemmli buffer. The levels of undigested proteins were evaluated by SDS-PAGE. The band intensities of proteins incubated with […] in the presence of a modulator were compared to those of proteins incubated with the enzyme alone, which were set as 100%. Three independent experiments were performed for each protein. The results are presented as the means ± SD. One-way ANOVA with Tukey's post-hoc test was used to determine statistical significance.

[2] = PAMPA, blood–brain barrier mimic; assay type: in vitro ADME; conditions: 500 μM, 37 °C, 22 h
Description: In neurodegenerative diseases, proteins prone to aggregation accumulate in the neuronal cells. Therefore, a necessary feature of potential drugs is not only permeability across the cell membrane but also the ability to cross the blood-brain barrier (BBB). To preliminarily investigate this feature, we performed parallel artificial membrane permeation assays (PAMPA) including as positive controls propranolol and Tat47-57, known for their ability to penetrate the blood-brain barrier. Dopamine hydrobromide was included as a negative control. For comparison, we also tested compound 1a, which is devoid of a CPP sequence. […] The PAMPA was performed as previously described.[21] Briefly, a 2% solution of porcine brain lipid membrane (PBL; Avanti Polar Lipids Inc., Alabaster, AL, USA) in anhydrous dodecane was used as a mimic of the blood-brain barrier. Propranolol hydrochloride (Merck, Darmstadt, Germany) and Tat47-57 (synthesized in-house) served as positive controls, while dopamine hydrobromide (Merck, Darmstadt, Germany) was used as a negative control. Stock solutions of the tested compounds and controls were prepared at a concentration of 10 mM in deionized water and then diluted to 500 μM using 0.1 M PBS containing 5% DMSO. The donor-acceptor plate assembly was incubated at 37 °C while being shaken at 250 rpm for 22 h. Absorbance at 290 nm was measured for propranolol using an Infinite […] plate reader (Infinite […] plate reader, Tecan). For the other samples, fluorescence measurements were performed after the compounds were reacted with 0.02% fluorescamine. The rate of passive diffusion was calculated as the linear velocity of permeation (Pe). The data represent an average of three independent biological replicates.

SMILES: C[C@@H](O)[C@H](NC(=O)[C@H](Cc1ccccc1)NC(=O)[C@H](Cc1ccc(O)cc1)NC(=O)CN(CCCCN)C(=O)[C@H](CCCNC(=N)N)NC(=O)[C@H](CCCNC(=N)N)NC(=O)[C@H](CCCNC(=N)N)NC(=O)[C@H](CCC(N)=O)NC(=O)[C@H](CCCNC(=N)N)NC(=O)[C@H](CCCNC(=N)N)NC(=O)[C@H](CCCCN)NC(=O)[C@H](CCCCN)NC(=O)[C@@H](N)CCCNC(=N)N)C(=O)NCC(=O)N[C@@H](CO)C(=O)N[C@@H](CCCCN)C(=O)N[C@@H](CC(=O)O)C(=O)N[C@@H](Cc1c[nH]c2ccccc12)C(=O)N[C@@H](CCCNC(=N)N)C(=O)N[C@@H](CO)C(=O)N[C@@H](Cc1ccc(O)cc1)C(=O)N[C@@H](Cc1ccc(O)cc1)C(=O)N[C@@H](CO)C(=O)O [1f]
- Tau protein digested by h20S [1]: more than 90%
- permeability across artificial BBB membrane, PAMPA [2]: had the ability to penetrate the artificial membrane mimicking the BBB

— paper PMC12035797, “Peptidomimetics Activating the Proteasome: A New Perspective for Parkinson’s Treatment” (Journal of Medicinal Chemistry, 2025)
